Experiments:
bamyardgrass = test: Test B flood test barnyardgrass; format: in vivo, Echinochloa crus-galli; conditions: for Plant response rating, Barnyardgrass (0 to 10 scale, 0 is no effect, 10 is complete control) / Barnyardgrass plant response rating (0 to 10 scale, 0 is no effect, 10 is complete control): visual evaluation after twelve to sixteen days; for Barnyardgrass plant response rating (0 to 10 scale, 0 is no effect, 10 is complete control): under heading Pre-emergence
How it was run: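 Read-out is a visual response score from 0 (no effect) to 10 (complete control), assigned by comparison with untreated controls. Treatment was applied at the 2-leaf stage, and plants stayed in the greenhouse for twelve to sixteen days before scoring.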

bedstraw = test: Test B pre/postemergence bedstraw; format: in vivo, Galium aparine
How it was run: (§1)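 Response is a visual 0-to-10 score relative to untreated plants, where 0 means no effect and 10 means complete control, taken twelve to sixteen days after application. Treatments went onto soil at planting and onto foliage of 1- to 4-leaf plants, using a surfactant-containing non-phytotoxic solvent.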

wild oat = test: Test B pre/postemergence wild oat; format: in vivo, Avena fatua
How it was run: as §1

soybean = test: Test B pre/postemergence soybean; format: in vivo, Glycine max
How it was run: as §1

[1] = Rate 62 g/ha, flood test species, Pre-emergence
[2] = Rate 125 g/ha, flood test species
[3] = Rate 250 g/ha, Pre-emergence, flood-test species, scale 0 to 10, 0 is no effect, 10 is complete control
[4] = Rate 500 g/ha, Pre-emergence, flood test species, scale 0 to 10 (0 no effect, 10 complete control)
[5] = Postemergence, Rate 250 g/ha, scale 0 to 10, 0 is no effect, 10 is complete control
[6] = Preemergence, Rate 62 g/ha, scale 0 to 10 (0 no effect, 10 complete control)
[7] = Rate 500 g/ha, Postemergence, scale 0 to 10, 0 no effect, 10 complete control
[8] = Postemergence, Rate 125 g/ha, scale 0 to 10, 0 is no effect, 10 is complete control
[9] = Preemergence, Rate 250 g/ha, scale of 0 to 10 where 0 is no effect and 10 is complete control
[10] = Preemergence, Rate 500 g/ha, scale of 0 to 10 where 0 is no effect and 10 is complete control
[11] = Rate 62 g/ha, Postemergence, scale of 0 to 10 where 0 is no effect and 10 is complete control
[12] = Postemergence, Rate 500 g/ha, scale of 0 to 10 where 0 is no effect and 10 is complete control
[13] = Preemergence, Rate 125 g/ha, scale of 0 to 10 where 0 is no effect and 10 is complete control
[14] = Preemergence, Rate 500 g/ha, scale 0 to 10, 0 is no effect, 10 is complete control
[15] = Preemergence, Rate 250 g/ha, scale 0 to 10, 0 is no effect, 10 is complete control
[16] = Postemergence section (flood test species), Rate 500 g/ha, scale of 0 to 10 where 0 is no effect and 10 is complete control
[17] = Postemergence, Rate 250 g/ha, scale 0 to 10
[18] = Rate 62 g/ha, Postemergence, scale 0 to 10 (0 no effect, 10 complete control)
[19] = Rate 125 g/ha, Postemergence, scale 0 to 10, 0 is no effect, 10 is complete control

Row | Compound | Plant response rating, Barnyardgrass (0 to 10 scale, 0 is no effect, 10 is complete control) (bamyardgrass; [1]) | Barnyardgrass plant response rating (0 to 10 scale, 0 is no effect, 10 is complete control) (bamyardgrass; [2]) | Barnyardgrass plant response rating (bamyardgrass; [3]) | Barnyardgrass plant response rating (bamyardgrass; [4]) | Plant response rating, Bedstraw (bedstraw; [5]) | Plant response rating, Bedstraw (bedstraw; [6]) | Plant response rating, Wild oats (wild oat; [6]) | Wild oats plant response rating (wild oat; [11]) | Plant response rating, Soybean (soybean; [5]) | Plant response rating, Soybean (soybean; [6]) | Soybean plant response rating (soybean; [11]) | Bedstraw plant response rating (bedstraw; [12]) | Wild oats plant response rating (wild oat; [12]) | Plant response rating, Wild oats (wild oat; [13]) | Wild oats plant response rating (wild oat; [15]) | Wild oats plant response rating (wild oat; [14]) | Soybean plant response rating (soybean; [12]) | Plant response rating, Soybean (soybean; [13]) | Soybean plant response rating (soybean; [15]) | Soybean plant response rating (soybean; [14]) | also measured
1 | CC(C)N(C(=O)n1oc(=O)n(N2CCOCC2)c1=O)c1ccc(F)cc1 [Compound 385] | 0 | 0 | 0 | 0 | 0 | 0 | 0 | 0 | 2 | 0 | 2 |  |  |  |  |  |  |  |  |  | Plant response rating, Bedstraw (bedstraw; [7]): 3; Plant response rating, Wild oats (wild oat; [8]): 0; Plant response rating, Wild oats (wild oat; [5]): 2; Wild oats plant response rating (0 to 10 scale) (wild oat; Preemergence, Rate 125 g/ha): 2; Wild oats plant response rating (wild oat; [9]): 7; Wild oats plant response rating (wild oat; [10]): 10; Plant response rating, Wild oats (wild oat; [7]): 3; Plant response rating, Soybean (soybean; [8]): 2; Soybean plant response rating (0 to 10 scale) (soybean; Preemergence, Rate 125 g/ha): 0; Soybean plant response rating (soybean; [9]): 0; Soybean plant response rating (soybean; [10]): 0; Plant response rating, Soybean (soybean; [7]): 2
2 | CC(C)N(C(=O)n1oc(=O)n(CC#N)c1=O)c1ccc(F)cc1 [Compound 395] | 0 | 0 | 0 | 0 | 0 | 0 | 0 | 0 | 1 | 0 | 0 | 4 | 3 | 0 | 0 | 0 | 1 | 0 | 0 | 0 | Plant response rating, Bedstraw (bedstraw; [8]): 0; Plant response rating, Bedstraw (bedstraw; [13]): 0; Bedstraw plant response rating (bedstraw; [9]): 0; Bedstraw plant response rating (bedstraw; [14]): 0; Bedstraw plant response rating (bedstraw; [11]): 0
3 | CC(C)N(C(=O)n1oc(=O)n(CC2(C)COC2)c1=O)c1ccccc1 [Compound 420] |  |  |  |  | 3 |  | 0 |  | 3 | 0 |  | 5 | 2 | 2 | 2 | 5 | 4 | 0 | 0 | 0 | Plant response rating, Barnyardgrass (bamyardgrass; Postemergence (flood test), Rate 125 g/ha, scale 0 to 10, 0 is no effect, 10 is complete control): 0; Barnyardgrass plant response rating (bamyardgrass; [16]): 0; Barnyardgrass plant response rating (bamyardgrass; Rate 62 g/ha, Postemergence (flood test species), scale of 0 to 10 where 0 is no effect and 10 is complete control): 0; Plant response rating, Barnyardgrass (bamyardgrass; flood test species, listed under Postemergence, Rate 250 g/ha, scale 0 to 10, 0 is no effect, 10 is complete control): 0; Plant response rating, Bedstraw (bedstraw; [8]): 0; Bedstraw plant response rating (bedstraw; [11]): 0
4 | CC(C)N(C(=O)n1oc(=O)n(C(C)C#N)c1=O)c1ccccc1 (stereo not shown) [Compound 435] |  |  |  |  |  |  | 0 |  |  | 0 |  | 0 | 3 | 0 | 2 | 3 | 3 | 0 | 0 | 0 | Barnyardgrass plant response rating (bamyardgrass; Postemergence block (flood test species), Rate 250 g/ha, scale 0 to 10): 0; Barnyardgrass plant response rating (bamyardgrass; [16]): 0; Barnyardgrass plant response rating (bamyardgrass; Rate 62 g/ha, Postemergence (flood test), scale 0 to 10, 0 no effect, 10 complete control): 0; Barnyardgrass plant response rating (bamyardgrass; Rate 125 g/ha, Postemergence section (flood test species), scale 0 to 10, 0 is no effect, 10 is complete control): 0; Bedstraw plant response rating (bedstraw; [17]): 0; Bedstraw plant response rating (bedstraw; [18]): 0; Bedstraw plant response rating (bedstraw; [19]): 0; Wild oats plant response rating (wild oat; [17]): 0; Wild oats plant response rating (wild oat; [18]): 0; Wild oats plant response rating (wild oat; [19]): 0; Soybean plant response rating (soybean; [17]): 1; Soybean plant response rating (soybean; [18]): 0; Soybean plant response rating (soybean; [19]): 1

— patent US6737383B1, “Herbicidal oxadiazolidines” (priority 1999, dated 2004)
